Reference: patent US4666915A, “2-anilino-1,6-dihydro-6-oxo-5-pyrimidine-carboxylic acid derivatives, process for the preparation thereof, and antiallergic agent containing the same” (Morishita Pharmaceutical Co. Ltd., priority 1984, dated 1987)
Where two headings read alike, the source gives them in different places.

Assays:
[1] = test system: passive cutaneous anaphylaxis (PCA); assay: PCA response in rats; assay type: in vivo, Wistar male rats; conditions: Rattus norvegicus, read-out: 50% inhibiting dose (ED50) in the rat PCA
Experimental: [1] PCA response in rats:
Wistar male rats weighing 190-220 g were used. A diluted anti-dinitrophenyl-Ascalis (DNP-As) rat serum (each 0.1 ml) was intracutaneously injected into the back of the animals, by which the animals were passively sensitized. After 48 hours, Evans blue liquid (1.0 ml) containing DNP-As (20 mg, as a protein) was intravenously injected to the animals to induce PCA.
After 30 minutes, rats were killed, and the skin at the response region was peeled off, and the amount of color was measured spectrophotometrically. Test compounds were administered 30 minutes (in case of intraperitoneal injection) or one hour (in case of oral administration) before the challenge with the antigen.
The data of the references: disodium chromoglycate (SDCG) and Tranilast are also shown therein.

[2] = Toxicity test in mice (LD50, Litchfield-Wilcoxon method); conditions: mouse, in vivo, po; mortality during 7 days; ddY male mice; read-out: 50% lethal dose (LD50)
[3] = as above; conditions: mouse, in vivo, ip; mortality during 7 days; ddY male mice; read-out: 50% lethal dose (LD50)
Experimental: The test compound was suspended in 0.5% carboxymethylcellulose solution, and the suspension was intraperitoneally administered to ddY male mice (weighing 20-25 g, one group: 10 mice). Based on the total mortality during 7 days after the administration of the test compound, the 50% lethal dose (LD50) was calculated by Litchfield-Wilcoxon method. The data of reference (Tranilast) are also shown therein.

[4] = test system: SRS-A; assay: Anti-SRS-A action, Magnus method using the isolated guinea pig ileum; conditions: crude SRS-A after 3 minutes; for IC50: read-out: 50% inhibition concentration
Experimental: The anti-SRS-A activity of the compounds of the present invention was measured by Magnus method using the isolated guinea pig ileum. An extracted ileum of guinea pig was hung within a Magnus vessel which was maintained at 31±1° C. and then pre-treated with mepiramine to remove any effect by histamine. Test compound was administered in a dose of 3×10^-5 to 10^-3 M, and after 3 minutes, a previously prepared crude SRS-A was acted thereto, and then, the shrink rate (%) of the ileum was measured.

[5] = ip, 30 minutes before the challenge with the antigen
[6] = po, 1 h, p.o., one hour before the challenge with the antigen

SMILES | ED50 [1, 5] | ED50 [1, 6] | LD50 at 168 h [2] | LD50 at 168 h [3] | IC50 [4] | Inhibition rate ([4]; test compd. 3 × 10^-4 M) | Inhibition rate ([4]; test compd. 10^-3 M) | Inhibition rate ([4]; test compd. 10^-4 M) | Inhibition rate ([4]; test compd. 3 × 10^-5 M)
CC(C)Oc1ccccc1Nc1ncc(C(=O)O)c(=O)[nH]1 [Example 50, 1,6-dihydro-2-[b 2-(1-methylethoxy)anilino]-6-oxo-5-pyrimidinecarboxylic acid] | 13 mg/kg | 75 mg/kg | – | – | – | – | – | – | –
CCCCOc1ccccc1Nc1ncc(C(=O)O)c(=O)[nH]1 [Example 51, 1,6-dihydro-2-(2-butoxyanilino)-6-oxo-5-pyrimidinecarboxylic acid] | 10.7 mg/kg | 92 mg/kg | > 3000 mg/kg | 1230 mg/kg | – | – | – | – | –
CCCOc1ccccc1Nc1ncc(C(=O)O)c(=O)[nH]1 [Example 49, 1,6-dihydro-2-(2-propoxyanilino)-6-oxo-5-pyrimidinecarboxylic acid] | 11 mg/kg | 22.2 mg/kg | > 3000 mg/kg | 1160 mg/kg | 487 µM | 17.9% | 97.3% | 8.1% | –
O=C(O)c1cc(=O)c2c(OCC(O)COc3cccc4oc(C(=O)O)cc(=O)c34)cccc2o1 [DSCG, disodium chromoglycate, reference compound] | 3.3 mg/kg | > 200 mg/kg | – | – | > 1000 µM | – | 6% | – | –
COc1ccc(/C=C/C(=O)Nc2ccccc2C(=O)O)cc1OC [Tranilast, reference compound] | 40 mg/kg | 110 mg/kg | 780 mg/kg | 430 mg/kg | > 1000 µM | 32.4% | 48.2% | 23.5% | –
CCOc1ccccc1Nc1ncc(C(=O)O)c(=O)[nH]1 [Example 48, 1,6-dihydro-2-(2-ethoxyanilino)-6-oxo-5-pyrimidinecarboxylic acid] | 20.2 mg/kg | 98 mg/kg | > 3000 mg/kg | > 500 mg/kg | – | – | – | – | –
CC(C)COc1ccccc1Nc1ncc(C(=O)O)c(=O)[nH]1 [Example 52, 1,6-dihydro-2-[2-(2-methylpropoxy)anilino]-6-oxo-5-pyrimidinecarboxylic acid] | 4.7 mg/kg | 39 mg/kg | > 3000 mg/kg | 780 mg/kg | 154 µM | 87.9% | – | 26.2% | 12.2%
